The values that follow come from US10716305B2, “Anti-bacterial compositions” (priority 2015, dated 2020).

One data set deals with MRSA. The experiment in a line: Comparative efficacy study, oral gavage, MRSA induction IP. The data set is classed as in vivo, BALB/C mice. The note with it: oral treatment for 7 days, Composition A 100 mg/kg, antibiotics per RX dose converted to mice. The procedure: Efficacy Study in comparison to leading anti-MRSA antibiotics was conducted in BALB/C mice.
7a. Administration Route: Oral Gavage
Group 1 (6 mice males)—MRSA Induction IP no treatment
Group 2 (6 mice males)—MRSA Induction IP—oral treatment for 7 days
Group 3 (6 mice males)—No Induction—oral treatment for 7 days
For the antibiotics the dose was as per RX prescription converted to mice Body Weights.
1—Erythromycin 250 mg/pt b.i.d. equals 2.1 mg/20 g mouse/day 300 mg total/12 mice
2—Clindamycin 150 mg/pt b.i.d. equals 1.25 mg/20 g mouse/day 200 mg total/12 mice
3—Vancomycine 250 mg/pt b.i.d. equals 2.1 mg/20 g mouse/day 300 mg total/12 mice

For data set [1], the system named is BALB/C 3T3 mouse fibroblast cell line. The experiment in a line: 3T3 Neutral Red Uptake Phototoxicity Assay. The data set is classed as cell-based. The note with it: for EC50: Mus musculus. The procedure:
The cytotoxicity and phototoxicity of the test composition to 3T3 cells (in the presence or absence of UVA light) was assessed by Neutral Red Uptake. The 3T3 Neutral Red Uptake Phototoxicity Assay (3T3 NRU PT), based on the OECD Guideline for Testing of Chemicals: […] An Ultraviolet-Visible light (UV-VIS) spectral scan was performed on a solution containing 0.1% of the test composition in a solution of 1% DMSO/HBSS. […] For both the range-finding screen and the definitive test of the 3T3 assay, BALB/C 3T3 cells were seeded in the central 60 wells of duplicate 96-well microplates and maintained in culture for approximately 24 hours. The two 96-well plates were then preincubated with eight different concentrations of the test composition for approximately one hour. After preincubation, one plate was irradiated with a dose of 5 J/cm^2 Solar Simulated Light (SSL, containing wavelengths in the UVA and visible regions with >99% of UVB blocked out), while the duplicate plate was kept in the dark (No SSL). After UV irradiation, the treatment medium was replaced with culture medium and, after approximately 24 hours, cell viability was determined by neutral red uptake for three hours. A range finding screen was performed to determine the acceptable concentrations for the definitive test. MS Excel® was used to calculate the EC50 values and Photo-Irritant Factor (PIF) for the test article and the Chlorpromazine (CPZ) positive control in both the Screen and the Definitive test.

The test system of data set [2] is MatTek EpiDerm tissue (Reconstructed Human Epidermis). Kind of data set: MatTek EpiDerm Skin Irritation Test (SIT). The class given is cell-based. The note with it: 60 minutes treatment. As to the method:
This test was conducted to predict dermal irritation potential of test articles in the context of identification and classification of skin irritation hazard according to the European Union (EU) classification ([…] or no label), United Nations Globally Harmonized System of Classification and Labeling of Chemicals (GHS) classification system (Category 2 and non-irritants), and OECD Guideline for the Testing of Chemicals No. 439-In Vitro Skin Irritation: Reconstructed Human Epidermis Test Method. This study was designed based on MatTek protocol in vitro EpiDermTM Skin Irritation Test. MatTek EpiDermTM tissue samples were treated in triplicate with the test composition, Negative Control and Positive Control for 60 minutes. Following treatment and subsequent incubation time, the viability of the tissues was determined using Methyl thiazole tetrazolium (MTT) uptake and reduction. The absorbance of each sample was measured at 540 nm. The viability was then expressed as a percent of control values. If the mean tissue viability was ≤50%, the test material was classified as an irritant; if the mean tissue viability was […].

Another data set relates to bovine corneas. The experiment in a line: OECD Bovine Corneal Opacity and Permeability Test (BCOP). The note with it: 0.75 ml, 10-minute exposure. As to the method: This protocol is based on the methodology described in the current OECD Guideline for the Testing of Chemicals #437.
Following a 10-minute exposure for each group of dosed corneas, opacity measurements and sodium fluorescein permeability were determined.

Values after ≈ are worked out from the molar mass of the structure shown. Read-outs that look alike come from different tables or passages of the source.

Regarding `CC[C@H]1OC(=O)[C@H](C)[C@@H](O[C@H]2C[C@@](C)(OC)[C@@H](O)[C@H](C)O2)[C@H](C)[C@@H](O[C@@H]2O[C@H](C)C[C@H](N(C)C)[C@H]2O)[C@](C)(O)C[C@@H](C)C(=O)[C@H](C)[C@@H](O)[C@]1(C)O` [Erythromycin], in the data set on MRSA, the blood cell culture entry is on record as “two colonies”.

As to `CN[C@H](CC(C)C)C(=O)N[C@H]1C(=O)N[C@@H](CC(N)=O)C(=O)N[C@H]2C(=O)N[C@H]3C(=O)N[C@H](C(=O)N[C@H](C(=O)O)c4cc(O)cc(O)c4-c4cc3ccc4O)[C@H](O)c3ccc(c(Cl)c3)Oc3cc2cc(c3O[C@@H]2O[C@H](CO)[C@@H](O)[C@H](O)[C@H]2O[C@H]2C[C@](C)(N)[C@H](O)[C@H](C)O2)Oc2ccc(cc2Cl)[C@H]1O` [vancomycin, Vancomycin], the blood cell culture entry in the data set with MRSA is recorded as “one colony”. On to `CN(C)CCCN1c2ccccc2Sc2ccc(Cl)cc21` [CPZ, Chlorpromazine], for which the EC50 (commonly the midpoint of the concentration-response curve) in data set [1] (BALB/c3T3, light or radiation study, 5 J/cm^2 Solar Simulated Light, range tested 0.22-3.16 μg/ml, read-out: EC50 + SSL) was 0.4 µg/mL; in data set [1] (BALB/c3T3, dark, range tested 6.81-100 μg/ml, read-out: EC50 No SSL), 18.8 µg/mL (≈ 59 µM). Further, the “PIF (Photo-Irritant Factor)” value in data set [1] (definitive test) is reported as 47.0. Take `CCCCCCCCCCCCOS(=O)(=O)[O-].[Na+]` [5% Sodium Dodecyl Sulfate, Sodium Dodecyl Sulfate]: the “Irritancy Classification” value in data set [2] was “Irritant (mean tissue viability was ≤50%, the test material was classified as an irritant)”. Besides, in data set [2] (MTT, percent of control), the “Mean Tissue Viability” value was 3.1%. As for `CCO` [100% Ethanol, Ethanol], in the data set on bovine corneas, the “Corrected Mean Opacity Score” value amounted to 22.66 and the “In Vitro Irritation Score (IVIS)” value stood at 32.34.
